Experimental data as given in EP2154155B1, “Analysis of agonist-activity and antagonist-activity to cytokinin receptor” (Sumitomo Chemical Company, Limited, priority 2001, dated 2002).

What was measured:
[1] = tested on: Arabidopsis thaliana cytokinin receptor AHK2, SEQ ID No: 2, expressed in transformed cell TM182-AHK2; experiment: Agonist-activity search: optical density of TM182-AHK2 liquid culture in 96-well plate; assay type: cell-based; settings: examinee substance 100 µM at the final concentration, DOLU + Glu medium, 30°C, 24 hours, DMSO blank 0.01
Method: (§2) The pre-cultured solutions were diluted with DOLU + Glu media as to become 0.100 as the optical density (OD600) and further the resultants were diluted with DOLU + Glu media at a dilution rate of 1/200 to obtain diluted pre-cultured solutions.
(§3) An assay plate was prepared by filling respective wells of a 96-well plate with 20 µl of solutions which were prepared by diluting DMSO solution (10mM) of each examinee substance with DOLU + Glu medium at a dilution rate of 1/100, said solutions containing each examinee substance to be 100 µM at the final concentration. Simultaneously, an assay plate only filled with 20 µl of solutions which were prepared by diluting DMSO solution with DOLU + Glu medium, said solutions containing no examinee substance, was prepared as the blank sections.
(§4) The diluted pre-cultured solutions were added in 200 µl each into the respective wells of both assay plates and cultured at 30°C for 24 hours and then the optical density (OD620) of each well was measured by a plate reader. The agonist-activity of the examinee substances to the cytokinin receptor was detected by comparing the optical density measured in the testing sections to which the examinee substances were added with the optical density measured in the blank sections.

[2] = tested on: Arabidopsis thaliana cytokinin receptor AHK3, SEQ ID No: 4, expressed in transformed cell TM182-AHK3; experiment: Agonist-activity search: optical density of TM182-AHK3 liquid culture in 96-well plate; assay type: cell-based; settings: examinee substance 100 µM at the final concentration, DOLU + Glu medium, 30°C, 24 hours, DMSO blank 0.51
Method: as §2, §3, §4

[3] = tested on: Arabidopsis thaliana cytokinin receptor AHK2 variant AHK2Δ (partially transmembrane region-deleted type, amino acid number 196 to 1176 of SEQ ID No: 2) …; experiment: Agonist-activity search: optical density of TM182-AHK2Δ liquid culture in 96-well plate; settings: examinee substance 100 µM at the final concentration, DOLU + Glu medium, 30°C, 24 hours, DMSO blank 0
Method: The transformed cells TM 182-CRE 1, TM182-AHK2,TM182-AHK2 Δ and TM182-AHK3 produced in the example 12 were inoculated in 200 ml of DOLU + Gal culture media and pre-cultured at 30°C for 36 hours. The pre-cultured solutions were diluted with DOLU + Glu media as to become 0.100 as the optical density (OD600) and further the resultants were diluted with DOLU + Glu media at a dilution rate of 1/200 to obtain diluted pre-cultured solutions.
An assay plate was prepared by filling respective wells of a 96-well plate with 20 µl of solutions which were prepared by diluting DMSO solution (10mM) of each examinee substance with DOLU + Glu medium at a dilution rate of 1/100, said solutions containing each examinee substance to be 100 µM at the final concentration. […]
as §4

[4] = tested on: Arabidopsis thaliana cytokinin receptor CRE1, SEQ ID No: 6, expressed in transformed cell TM182-CRE1; experiment: Growth of transformed yeast cells TM182-CRE1 spotted on DOLU + Glu agar media containing cytokinin; assay type: cell-based; settings: 30°C, 30 hours; for lowest observed supply concentration in which the transformed cells could be grown: DOLU + Glu agar media, cytokinin 1 nM to 100 µM
From the text: More particularly, for example, in the case of using a transformed cell (that is, a transformed cell having a function of directly controlling the cell growth by intracellular signal transduction from the cytokinin receptor) produced using TM182 (sln1 Δ) [Maeda T et al, Nature 369: 242-245 (1994)], a SLN1 genetically defected strain in which, for example, PTP2 Tyrosine phosphatase gene [Ota et al. Proc. N. A. Sci., USA, 89, 2355-2359 (1992)] is introduced as a host cell, the agonist-activity to the cytokinin receptor may be measured using, as an indicator, the quantity of the cell growth of the transformed cell in a culture medium (an agar culture medium or a liquid culture medium) containing glucose as a carbon source, for example, a DOLU + Glu culture medium. In the case of the DOLU + Glu culture medium to which the examinee substance is added, the examinee substance found capable of growing the transformed cell can be evaluated as a substance having the agonist-activity to the cytokinin receptor. On the other hand, in the case of the DOLU+Glu culture medium to which the examinee substance and a substance having the agonist-activity to the cytokinin receptor are added, the examinee substance found capable of suppressing or inhibiting the growth of the transformed cell can be evaluated as a substance having the antagonist-activity to the cytokinin receptor.
Transformation of TM182 (sln1Δ), SLN1 genetically detected strain, [Maeda T et al. Nature: 369 242-245 (1994)] was carried out using the obtained expression plasmid p415CYC-CRE1 (the example 5), p415CYC-AHK2 (the example 11), p415CYC-AHK2 Δ (the example 11) and p415CYC-AHK3 (the example 8). The transformation was carried out by employing Polyethylene glycol/lithium acetate (PEG/LiAc)-mediated transformation method according to the description of VII. Library Transformation & Screening Protocols disclosed in […] Two-Hybrid System 3 User Manual p.
After incubation, the growth state of the transformed cells was observed and photographed by a digital camera. […]

[5] = tested on: Arabidopsis thaliana cytokinin receptor AHK2, SEQ ID No: 2, expressed in transformed cell TM182-AHK2; settings: 30°C, 30 hours
From the text: (§1) More particularly, for example, in the case of using a transformed cell (that is, a transformed cell having a function of directly controlling the cell growth by intracellular signal transduction from the cytokinin receptor) produced using TM182 (sln1 Δ) [Maeda T et al, Nature 369: 242-245 (1994)], a SLN1 genetically defected strain in which, for example, PTP2 Tyrosine phosphatase gene [Ota et al. Proc. N. A. Sci., USA, 89, 2355-2359 (1992)] is introduced as a host cell, the agonist-activity to the cytokinin receptor may be measured using, as an indicator, the quantity of the cell growth of the transformed cell in a culture medium (an agar culture medium or a liquid culture medium) containing glucose as a carbon source, for example, a DOLU + Glu culture medium. In the case of the DOLU + Glu culture medium to which the examinee substance is added, the examinee substance found capable of growing the transformed cell can be evaluated as a substance having the agonist-activity to the cytokinin receptor. On the other hand, in the case of the DOLU+Glu culture medium to which the examinee substance and a substance having the agonist-activity to the cytokinin receptor are added, the examinee substance found capable of suppressing or inhibiting the growth of the transformed cell can be evaluated as a substance having the antagonist-activity to the cytokinin receptor. […]

[6] = tested on: Arabidopsis thaliana cytokinin receptor AHK3, SEQ ID No: 4, expressed in transformed cell TM182-AHK3; settings: DOLU + Glu agar media containing 10 µM of trans-zeatin, 30°C, 30 hours, compared with media containing no trans-zeatin
From the text: as §1

[7] = tested on: Arabidopsis thaliana cytokinin receptor AHK2 variant AHK2Δ (partially transmembrane region-deleted type, amino acid number 196 to 1176 of SEQ ID No: 2) …; experiment: Growth of transformed yeast cells TM182-AHK2Δ spotted on DOLU + Glu agar media containing cytokinin; assay type: cell-based; settings: 30°C, 30 hours
From the text: as §1

[8] = DOLU + Glu agar media containing 10 µM of trans-zeatin, compared with media containing no trans-zeatin
[9] = DOLU + Glu agar media, cytokinin 1 nM to 100 µM

SMILES: CC1=CC(=O)CC(C)(C)[C@@]1(O)/C=C/C(C)=C\C(=O)O [Compound A, Abscisic acid]
- optical density (OD620) of the culture solutions of the transformed cells [1]: 0.01
- optical density (OD620) of the culture solutions of the transformed cells [2]: 0.54

SMILES: c1ccc(CNc2ncnc3nc[nH]c23)cc1 [Compound B, 6-Benzyl aminopurine]
- optical density (OD620) of the culture solutions of the transformed cells [3]: 0.89
- optical density (OD620) of the culture solutions of the transformed cells [1]: 0.45
- optical density (OD620) of the culture solutions of the transformed cells [2]: 0.88

SMILES: C/C(=C\CNc1ncnc2[nH]cnc12)CO [trans-zeatin]
- growth state of the transformed cells [4, 8]: high growth
- lowest observed supply concentration in which the transformed cells could be grown [4]: 10 µ M
- growth state of the transformed cells [5, 8]: high growth
- growth state of the transformed cells [6]: high growth
- growth state of the transformed cells [7, 8]: high growth
- lowest observed supply concentration in which the transformed cells could be grown [7, 9]: 100 nM

SMILES: C/C(=C/CNc1ncnc2[nH]cnc12)CO [cis-zeatin]
- lowest observed supply concentration in which the transformed cells could be grown [4]: no growth
- lowest observed supply concentration in which the transformed cells could be grown [5, 9]: 10 µ M
